Values quoted from earlier work in patent US20240189229A1, “LIQUID PHARMACEUTICAL COMPOSITIONS OF BACLOFEN FOR ORAL ADMINISTRATION” (ANI Pharmaceuticals, Inc., priority 2022, published 2024).
Where two headings read alike, the source gives them in different places.

- Concentration of baclofen obtained by dissolving (aqueous solution of 0.1N HCl (Ahuja 1985)): greater than 20 mg/mL
- Concentration of baclofen obtained by dissolving (aqueous solution of 0.1N NaOH (Ahuja 1985)): greater than 20 mg/mL
- Solubility in chloroform (chloroform): insoluble
- Solubility in methanol (methanol): very slightly soluble
- Solubility in water (water): slightly soluble
SMILES: NCC(CC(=O)O)c1ccc(Cl)cc1 (centres unmarked) [Baclofen, 4-amino-3-(4-chlorophenyl)-butanoic acid]
